Experimental data reported in patent US4582820A, “Orally administered biologically active peptides and proteins” (Research Corporation, priority 1982, dated 1986).
“And” between values parts separate entries of the source, which are not always exact repeats. Equal entries are not always repeated. Where two headings read alike, the source gives them in different places.

What was measured:
[1] = system: Mice; settings: cited from earlier work; for LD50: Mice
[2] = system: diabetic (streptozotocin-treated) rats; assay: Oral administration in diabetic rats, plasma glucose; format: in vivo, rat; settings: for Glucose / Glucose Level (% initial level): unmodified insulin oral 80 μ/kg
Method: (§1) The term "diabetic rat" in the following tests refers to rats having been treated with streptozoticin by intravenous injection at a dosage of 75 mg/kg at least 4 days prior to the experiments in question. All rats used in the experiments had been fasting 12-18 hours prior to the experiments. Blood samples were taken at appropriate intervals as disclosed in the tables from a vein cannula which was implanted in a jugular vein. During the experiments, rats were awake, were able to move freely and had access to water (but no food). Plasma glucose was measured on a Beckman Glucose Analyzer 2 employing the enzymatic reaction of β-D-glucose with oxygen and measuring oxygen consumption rather than hydrogen peroxide formation.
B. Oral Administration of Regular and Modified Insulin (at 80μ/kg) in Normal and Diabetic Rats.
The three controls were regular insulin, a carrier complex of SDS:TEA, and a complex of albumin:SDS:TEA in the same weight ratio as than in the insulin complex; i.e., albumin:SDS:TEA=5:7.5:3.6.
The results of oral administrations of modified insulin and carrier complex (SDS:TEA=1:1 by mole) in the amount equivalent to that in the sandwich complex of insulin calculated based on 80μof insulin per kg of rat in normal rats are shown in Tables 3 and 4. The results of oral administrations of modified insulin, regular insulin, carrier complex and the sandwich complex of albumin (albumin:SDS:TEA in a weight ratio of 5:7.5:3.6) in diabetic rats are shown in Tables 5, 6, 7 and 8 respectively.

[3] = system: diabetic (streptozotocin-treated) rats; assay: Intravenous administration in diabetic rats, plasma glucose; format: in vivo; settings: for % Initial plasma glucose conc. / Actual plasma glucose: iv 0.5 μ/kg
Method: as §1
A. Intravenous (iv) Administration of Regular and Modified Insulin in Diabetic Rats
From 15 min to 45 min after iv administration, the induced hypoglycemic effect was more pronounced in regular-insulin-treated aminals.

[4] = diabetic rats, 15 min, mean ± SD
[5] = diabetic rats, 15 min, single rats
[6] = diabetic rats, 30 min, mean ± SD
[7] = diabetic rats, 30 min, single rats
[8] = diabetic rats, 45 min, mean ± SD
[9] = diabetic rats, 45 min, single rats
[10] = diabetic rats, 60 min, mean ± SD
[11] = diabetic rats, 60 min, single rats
[12] = diabetic rats, 90 min, mean ± SD
[13] = diabetic rats, 90 min, single rats
[14] = diabetic rats, 120 min, mean ± SD
[15] = diabetic rats, 120 min, single rats
[16] = diabetic rats, 180 min, mean ± SD
[17] = diabetic rats, 180 min, single rats
[18] = diabetic rats, 300 min, mean ± SD
[19] = diabetic rats, 300 min, single rats

Which results are given for `Cn1ccnc1` [1-methylimidazole]?
LD50 ([1]; ipr.): 380 mg/kg; toxicity (in words) ([1]; mouse, in vivo): very slight; LD50 ([1]; oral): 1500 mg/kg

With “Insulin: Insulin (bovine pancreas, crystalline; 25.5 μ/mg; Sigma)” as the compound, how does the “systemic hypoglycemic effect (in words)” value ([2]; oral administration) read?
Its value is “does not result in a systemic, hypoglycemic effect”.

What about the Glucose ([2]; 15 min, Mean ± Std. Dev.) of the same compound?
Its Glucose is 273 ± 112 mg/100 ml.

And the “Glucose Level (% initial level)” value ([2]; 15 min, Mean ± Std. Dev.)?
Its value is 134 ± 20%.

And the Glucose ([2]; 15 min, single rats)?
Its Glucose is 145 mg/100 ml and 371 mg/100 ml and 214 mg/100 ml and 363 mg/100 ml.

What about the “Glucose Level (% initial level)” value ([2]; 15 min, single rats) of the same compound?
The value was 119% and 155.2% and 146.6% and 115%.

What about the Glucose ([2]; 30 min, Mean ± Std. Dev.) of the same compound?
The Glucose was 325 ± 28 mg/100 ml.

And the “Glucose Level (% initial level)” value ([2]; 30 min, Mean ± Std. Dev.)?
Its value is 104.7 ± 19.8%.

What about the Glucose ([2]; 30 min, single rats) of the same compound?
The Glucose was 293 mg/100 ml and 343 mg/100 ml and 340 mg/100 ml.

And the “Glucose Level (% initial level)” value ([2]; 30 min, single rats)?
The value was 122.6% and 107.9% and 83.5%.

What about the Glucose ([2]; 45 min, Mean ± Std. Dev.) of the same compound?
The Glucose was 327 ± 82 mg/100 ml.

And the “Glucose Level (% initial level)” value ([2]; 45 min, Mean ± Std. Dev.)?
Its value is 105.6 ± 31.2%.

And the Glucose ([2]; 45 min, single rats)?
The Glucose was 270 mg/100 ml and 421 mg/100 ml and 290 mg/100 ml.

What about the “Glucose Level (% initial level)” value ([2]; 45 min, single rats) of the same compound?
The value was 113.0% and 132.4% and 71.3%.

And the Glucose ([2]; 60 min, Mean ± Std. Dev.)?
The Glucose was 285 ± 87 mg/100 ml.

What about the “Glucose Level (% initial level)” value ([2]; 60 min, Mean ± Std. Dev.) of the same compound?
Its value is 124.1 ± 57.9%.

What about the Glucose ([2]; 60 min, single rats) of the same compound?
The Glucose was 152 mg/100 ml and 309 mg/100 ml and 272 mg/100 ml and 329 mg/100 ml and 410 mg/100 ml and 239 mg/100 ml.

And the “Glucose Level (% initial level)” value ([2]; 60 min, single rats)?
The value was 124.6% and 129.3% and 77.5% and 225.3% and 128.9% and 58.7%.

What about the Glucose ([2]; 120 min, Mean ± Std. Dev.) of the same compound?
Its Glucose is 270 ± 118 mg/100 ml.

What about the “Glucose Level (% initial level)” value ([2]; 120 min, Mean ± Std. Dev.) of the same compound?
Its value is 121.4 ± 79.4%.

And the Glucose ([2]; 120 min, single rats)?
Its Glucose is 122 mg/100 ml and 288 mg/100 ml and 251 mg/100 ml and 392 mg/100 ml and 411 mg/100 ml and 157 mg/100 ml.

What about the “Glucose Level (% initial level)” value ([2]; 120 min, single rats) of the same compound?
Its value is 100% and 120.5% and 71.5% and 268.5% and 129.2% and 38.6%.

What about the Glucose ([2]; 180 min, Mean ± Std. Dev.) of the same compound?
The Glucose was 331 ± 127 mg/100 ml.

And the “Glucose Level (% initial level)” value ([2]; 180 min, Mean ± Std. Dev.)?
The value was 123.3 ± 76.1%.

And the Glucose ([2]; 180 min, single rats)?
The Glucose was 296 mg/100 ml and 226 mg/100 ml and 502 mg/100 ml and 422 mg/100 ml and 211 mg/100 ml.

And the “Glucose Level (% initial level)” value ([2]; 180 min, single rats)?
Its value is 123.9% and 64.5% and 243.8% and 132.7% and 51.8%.

What about the Glucose ([2]; 300 min, Mean ± Std. Dev.) of the same compound?
The Glucose was 282 mg/100 ml.

What about the “Glucose Level (% initial level)” value ([2]; 300 min, Mean ± Std. Dev.) of the same compound?
Its value is 116.1 ± 75.0%.

And the Glucose ([2]; 300 min, single rats)?
The Glucose was 290 mg/100 ml and 189 mg/100 ml and 342 mg/100 ml and 391 mg/100 ml and 196 mg/100 ml.

And the “Glucose Level (% initial level)” value ([2]; 300 min, single rats)?
The value was 121.3% and 53.8% and 234.2% and 123.0% and 48.2%.

What about the “% Initial plasma glucose conc.” value [3, 4] of the same compound?
The value was 63.8%.

And the Actual plasma glucose [3, 4]?
The Actual plasma glucose was 239 mg %.

What about the “% Initial plasma glucose conc.” value [3, 5] of the same compound?
The value was 46.1% and 63.8% and 57.7% and 84.5% and 47.9% and 82.5%.

And the Actual plasma glucose [3, 5]?
The Actual plasma glucose was 197 mg % and 176 mg % and 214 mg % and 359 mg % and 113 mg % and 372 mg %.

What about the “% Initial plasma glucose conc.” value [3, 6] of the same compound?
Its value is 50.0%.

What about the Actual plasma glucose [3, 6] of the same compound?
The Actual plasma glucose was 185 mg %.

And the “% Initial plasma glucose conc.” value [3, 7]?
Its value is 43.9% and 53.6% and 16.2% and 69.7% and 36.9% and 79.4%.

And the Actual plasma glucose [3, 7]?
The Actual plasma glucose was 358 mg % and 159 mg % and 148 mg % and 60 mg % and 296 mg % and 87 mg %.

What about the “% Initial plasma glucose conc.” value [3, 8] of the same compound?
Its value is 48.3%.

What about the Actual plasma glucose [3, 8] of the same compound?
The Actual plasma glucose was 169 mg %.

And the “% Initial plasma glucose conc.” value [3, 9]?
Its value is 36.5% and 59.1% and 31.0% and 56.2% and 41.5% and 65.3%.

And the Actual plasma glucose [3, 9]?
The Actual plasma glucose was 296 mg % and 132 mg % and 163 mg % and 84 mg % and 239 mg % and 98 mg %.

What about the “% Initial plasma glucose conc.” value [3, 10] of the same compound?
The value was 49.2 ± 15.4%.

And the Actual plasma glucose [3, 10]?
The Actual plasma glucose was 176 ± 83 mg %.

What about the “% Initial plasma glucose conc.” value [3, 11] of the same compound?
The value was 38.4% and 57.6% and 27.2% and 51.8% and 48.3% and 71.6%.

And the Actual plasma glucose [3, 11]?
The Actual plasma glucose was 323 mg % and 139 mg % and 159 mg % and 101 mg % and 220 mg % and 114 mg %.

What about the “% Initial plasma glucose conc.” value [3, 12] of the same compound?
Its value is 53.0 ± 9%.

What about the Actual plasma glucose [3, 12] of the same compound?
Its Actual plasma glucose is 190 ± 69 mg %.

And the “% Initial plasma glucose conc.” value [3, 13]?
Its value is 45.4% and 53.6% and 50.4% and 46.1% and 51.7% and 70.7%.

What about the Actual plasma glucose [3, 13] of the same compound?
The Actual plasma glucose was 319 mg % and 168 mg % and 148 mg % and 187 mg % and 196 mg % and 122 mg %.

And the “% Initial plasma glucose conc.” value [3, 14]?
Its value is 50.1 ± 10.1%.

And the Actual plasma glucose [3, 14]?
The Actual plasma glucose was 177 ± 32 mg %.

And the “% Initial plasma glucose conc.” value [3, 15]?
The value was 42.3% and 58.0% and 56.9% and 35.1% and 60.6% and 47.8%.

What about the Actual plasma glucose [3, 15] of the same compound?
Its Actual plasma glucose is 215 mg % and 153 mg % and 160 mg % and 211 mg % and 149 mg % and 143 mg %.

What about the “% Initial plasma glucose conc.” value [3, 16] of the same compound?
Its value is 57.8%.

What about the Actual plasma glucose [3, 16] of the same compound?
The Actual plasma glucose was 196 mg %.

And the “% Initial plasma glucose conc.” value [3, 17]?
Its value is 58.8% and 59.8% and 76.3% and 37.9% and 67.8% and 45.9%.

What about the Actual plasma glucose [3, 17] of the same compound?
Its Actual plasma glucose is 207 mg % and 213 mg % and 165 mg % and 283 mg % and 161 mg % and 160 mg %.

What about the “% Initial plasma glucose conc.” value [3, 18] of the same compound?
The value was 65.7%.

What about the Actual plasma glucose [3, 18] of the same compound?
Its Actual plasma glucose is 225 mg %.

What about the “% Initial plasma glucose conc.” value [3, 19] of the same compound?
Its value is 60.8% and 58.1% and 89.2% and 46.6% and 90.7% and 48.6%.

What about the Actual plasma glucose [3, 19] of the same compound?
Its Actual plasma glucose is 219 mg % and 220 mg % and 167 mg % and 331 mg % and 198 mg % and 214 mg %.

And the “hypoglycemic effect (in words), rat #285” value ([3]; iv administration, diabetic rat #285 treated with both agents)?
Its value is “progressive hypoglycemic effect”.

And the “hypoglycemic effect (in words)” value ([3]; iv administration, diabetic rats)?
Its value is “progressive, systemic, hypoglycemic effects for five hours in all animals”.
